The source of these data is patent US20150184166A1 (Uinversity of Iowa Research Foundation, priority 2012, published 2015).

As a reminder, the Km is the concentration of substrate that gives half-maximal velocity. For orientation: kcat means the number of substrate molecules converted per active site and unit of time at saturation.

Where “and” joins values, the source holds several entries; their conditions need not be identical. Equal values may be shown once. Read-outs that look alike come from different tables or passages of the source.

The target of data set [1] is NdmB-His6 (Pseudomonas putida, UniProt H9N290). Kind of data set: Kinetic parameters of NdmB-His6 with His6-NdmD. Format: biochemical, Pseudomonas putida CBB5. The conditions noted are these: for Km / kcat: NdmB-His6 plus His6-NdmD, pH 7.5, 30° C. As to the method: (§1) Methylxanthine N-demethylase activity assay contained, in 1-ml total volume, 0.5 mM methylxanthine, 1 mM NADH, 50 μM Fe(NH4)2(SO4)2, and an appropriate amount of NdmA-His6 or NdmB-His6 (7.4 μg-2.5 mg protein depending on substrate specificity) in 50 mM KPi buffer (pH 7.5). Approximately 4 U of partially purified reductase, prepared as described previously (Summers et al., 2011) or 59 U of purified His6-NdmD was added to reaction mixture. Catalase from bovine liver (4,000 U) was also added to reactions containing His6-NdmD. The reaction mixture was incubated at 30° C. with 300 rpm shaking on an incubating microplate shaker (VWR, Radnor, Pa.). Periodically, a small aliquot was sampled from the reaction mixture and mixed with equal volume of acetonitrile for quantifying concentrations of methylxanthines and N-demethylated products by HPLC. One unit of N-demethylase activity was defined as the consumption of one […] methylxanthine per minute.
(§2) Apparent kinetic parameters of NdmA-His6 and NdmB-His6 were determined by measuring the initial rate of disappearance (vo) of methylxanthines in 50 mM KPi buffer (pH 7.5) at 30° C. The initial substrate concentrations ([S]) used in these experiments were from 25 to 500 μM. Substrates were incubated with His6-NdmD plus either NdmA-His6 or NdmB-His6 under standard conditions for 15 minutes. At 1, 5, 10, and 15 minutes, samples were removed from the reaction mixtures to quantitate substrate concentrations by HPLC. Plots of substrate concentrations against time were used to determine the initial rates of disappearance of substrates which were linear over 15 minutes. The apparent kinetic parameters were determined from Michaelis-Menten plots of vo against [S] fitted with the equation

In data set [2] the target is T1, NdmA-His6 (Pseudomonas putida, UniProt H9N289).
T1 sequence (H9N289 1-351): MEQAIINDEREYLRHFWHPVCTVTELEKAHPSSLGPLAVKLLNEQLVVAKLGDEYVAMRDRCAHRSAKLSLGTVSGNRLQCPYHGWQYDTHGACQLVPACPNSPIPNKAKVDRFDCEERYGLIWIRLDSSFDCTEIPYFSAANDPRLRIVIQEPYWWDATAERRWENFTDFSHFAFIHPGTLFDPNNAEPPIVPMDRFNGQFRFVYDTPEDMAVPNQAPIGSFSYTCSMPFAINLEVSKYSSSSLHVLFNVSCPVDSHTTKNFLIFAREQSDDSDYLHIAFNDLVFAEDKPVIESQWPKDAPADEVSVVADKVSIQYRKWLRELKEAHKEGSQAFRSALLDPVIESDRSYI
Kind of data set: Kinetic parameters of NdmA-His6 with His6-NdmD. The data set is classed as biochemical, Pseudomonas putida CBB5. The conditions noted are these: for kcat / Km: NdmA-His6 plus His6-NdmD, pH 7.5, 30° C. Here is the method:
as §1, §2

The test system of data set [3] is cell extracts of P. putida CBB5. Kind of data set: NADH-dependent N-demethylase activity of CBB5 cell extracts. The data set is classed as biochemical, Pseudomonas putida CBB5. The following applies: 0.5 mM substrate, 7.2 mg mL^−1 protein.
Data set [4] has as its system NdmC. Briefly: N-demethylation by NdmC fraction co-purified with reductase. The data set is classed as biochemical, Pseudomonas putida CBB5. The source says:
This activity was neither associated with NdmA nor with NdmB. […] Cloning of NdmC has proven difficult; nevertheless based on the fact that purified His6-NdmD had no activity on 7-methylxanthine, we annotate orf 8 as aanother RO with highly specific N-7 demthylase activity.

For data set [5], the target named is T2, Caffeine dehydrogenase (Cdh) (Pseudomonas sp., UniProt D7REY3).
T2 sequence (D7REY3 1-791): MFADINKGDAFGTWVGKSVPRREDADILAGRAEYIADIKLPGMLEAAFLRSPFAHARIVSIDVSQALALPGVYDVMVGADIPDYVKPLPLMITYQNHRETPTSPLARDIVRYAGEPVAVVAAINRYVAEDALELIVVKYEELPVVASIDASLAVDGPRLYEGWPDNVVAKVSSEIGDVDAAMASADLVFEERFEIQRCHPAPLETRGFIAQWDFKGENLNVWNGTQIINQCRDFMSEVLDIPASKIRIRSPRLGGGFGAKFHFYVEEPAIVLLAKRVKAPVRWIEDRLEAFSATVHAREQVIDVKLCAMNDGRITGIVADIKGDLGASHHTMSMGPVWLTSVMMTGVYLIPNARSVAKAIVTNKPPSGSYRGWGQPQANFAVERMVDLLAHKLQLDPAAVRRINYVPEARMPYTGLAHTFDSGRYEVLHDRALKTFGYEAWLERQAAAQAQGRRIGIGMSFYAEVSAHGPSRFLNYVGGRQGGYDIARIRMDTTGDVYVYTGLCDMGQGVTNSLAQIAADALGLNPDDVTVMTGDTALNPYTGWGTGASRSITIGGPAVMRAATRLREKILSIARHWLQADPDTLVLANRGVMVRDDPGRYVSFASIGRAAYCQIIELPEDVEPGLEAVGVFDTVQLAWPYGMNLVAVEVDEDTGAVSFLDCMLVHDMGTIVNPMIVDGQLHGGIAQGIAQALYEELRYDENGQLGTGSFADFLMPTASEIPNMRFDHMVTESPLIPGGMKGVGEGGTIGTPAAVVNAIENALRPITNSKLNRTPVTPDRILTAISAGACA
T2 sequence (D7REY4 1-295 partner): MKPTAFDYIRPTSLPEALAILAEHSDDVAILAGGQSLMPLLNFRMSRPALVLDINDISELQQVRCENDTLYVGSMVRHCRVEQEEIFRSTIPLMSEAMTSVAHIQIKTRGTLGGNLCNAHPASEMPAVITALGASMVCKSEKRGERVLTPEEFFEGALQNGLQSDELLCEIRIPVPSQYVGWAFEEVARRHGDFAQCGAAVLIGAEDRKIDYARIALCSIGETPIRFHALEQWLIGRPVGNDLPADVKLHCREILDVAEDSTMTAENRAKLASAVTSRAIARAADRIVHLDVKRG
T2 sequence (D7REY5 1-167 partner): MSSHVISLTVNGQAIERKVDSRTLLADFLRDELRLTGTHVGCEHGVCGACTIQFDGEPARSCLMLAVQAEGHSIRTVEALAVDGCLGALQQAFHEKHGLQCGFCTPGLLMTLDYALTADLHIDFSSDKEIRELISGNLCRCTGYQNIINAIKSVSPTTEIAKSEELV
The following applies: cited from earlier work.

Data set [6] concerns the target Ndm (methylxanthine N-demethylase) with Ccr reductase (Pseudomonas putida, UniProt H9N289+H9N290). The conditions noted are these: for O-demethylation by Ndm: prolonged incubation.
Data set [7] relates to Ndm (methylxanthine N-demethylase) with Ccr reductase.
The target in data set [8] is T3, Ndm, two-subunit N-demethylase component purified from Pseudomonas putida CBB5, H9N289.
T3 chain 1: T1 sequence (H9N289 1-351)
T3 chain 2: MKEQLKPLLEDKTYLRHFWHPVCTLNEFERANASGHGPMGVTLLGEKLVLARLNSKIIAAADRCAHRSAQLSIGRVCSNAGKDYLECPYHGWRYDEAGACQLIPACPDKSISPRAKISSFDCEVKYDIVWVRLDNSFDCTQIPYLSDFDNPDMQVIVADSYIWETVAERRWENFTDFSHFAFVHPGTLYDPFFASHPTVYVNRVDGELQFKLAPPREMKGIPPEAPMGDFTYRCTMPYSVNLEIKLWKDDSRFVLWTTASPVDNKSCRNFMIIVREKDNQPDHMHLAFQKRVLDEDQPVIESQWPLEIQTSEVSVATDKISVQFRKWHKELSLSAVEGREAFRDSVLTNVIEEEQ

With `Cn1c(=O)[nH]c2nc[nH]c2c1=O` [1-methylxanthine], the “N-demethylation activity of NdmB” value in data set [1] was “no activity”. Moreover, the Michaelis-Menten constant (Km) result in data set [1] is “∞”; in data set [2] (read-out: Km), 267 µM. In addition, the kcat in data set [2] came to 0.26 s⁻¹.

With `Cn1c(=O)[nH]c(=O)c2[nH]cnc21` [3-Methylxanthine, 3-methylxanthine], in data set [1], the kcat stood at 0.528 s⁻¹. Moreover, in data set [1] (read-out: Km), the Km is 22.4 µM. Also, in data set [2], the “N-demethylation activity of NdmA” value is “inactive” and the Km result is reported as “∞”.

With `Cn1c(=O)c2c(ncn2C)n(C)c1=O` [Caffeine, 1,3,7-trimethylxanthine], in data set [3], the “degradation rate compared with paraxanthine” value is listed as “significantly slower”. The “N-demethylation by NdmC/reductase fraction” value in data set [4] is recorded as “not N-demethylated”. For the same molecule, the kcat was found to be 0.00383 s⁻¹ in data set [1] and 3.205 s⁻¹ in data set [2]. The Km is 41.7 µM in data set [1] (read-out: Km); 3.7 ± 0.9 µM in data set [5] (Yu et al., 2008); 37.6 µM in data set [2] (read-out: Km).

On to `Cn1c(=O)[nH]c2ncn(C)c2c1=O` [Paraxanthine, 1,7-dimethylxanthine], for which, in data set [6] (after 13 minutes, 100 μM paraxanthine, 0.2 mg Ndm, 4 U Ccr), the “paraxanthine N-demethylated” value was 60.2 µM. Moreover, the Km in data set [7] (read-out: apparent KM, saturating Ccr, 50 μM Fe2+, 30° C., 50 mM KPi pH 7.5) was 50.4 ± 6.8 µM; in data set [1], “∞”; in data set [2] (read-out: Km), 52.9 µM. Also, in data set [7] (saturating Ccr, 50 μM Fe2+, 30° C., 50 mM KPi pH 7.5), the apparent kcat came out at 0.27 ± 0.01 s⁻¹. Moreover, the “time to complete utilization” value in data set [3] (0.5 mM NADH) is “about 20 minutes”. Further, the “N-demethylation by NdmC/reductase fraction” value in data set [4] was “not N-demethylated”. For the same molecule, the “N-demethylation activity of NdmB” value in data set [1] was “no activity”. Also, the catalytic constant (kcat) in data set [2] stood at 2.215 s⁻¹.

For the molecule `Cn1cnc2c1c(=O)[nH]c(=O)n2C` [Theobromine, 3,7-dimethylxanthine], in data set [3], the “degradation rate compared with paraxanthine” value is recorded as “significantly slower”. In data set [4], the “N-demethylation by NdmC/reductase fraction” value is “not N-demethylated”. Further, in data set [1], the kcat is 0.772 s⁻¹. Further, the Michaelis constant (Km) in data set [1] (read-out: Km) turned out to be 25.3 µM. Also, the “Preference as a substrate, times less than caffeine” value in data set [5] was 50 times. In data set [2], the “N-demethylation activity of NdmA” value was “inactive” and the Michaelis-Menten constant (Km) entry is “∞”.

Take `Cn1c(=O)c2[nH]cnc2n(C)c1=O` [Theophylline, 1,3-dimethylxanthine]: the “degradation rate compared with paraxanthine” value in data set [3] is “significantly slower”. For the same molecule, in data set [1], the kcat worked out at 0.0045 s⁻¹. For the same molecule, the Km in data set [1] (read-out: Km) worked out at 169 µM. For the same molecule, in data set [5], the “activity of Cdh” value is listed as “no activity” and the “activity of Cdh in substrate specificity study” value is 5%.

`COc1cc(C(=O)O)ccc1O` [vanillate]: the “O-demethylation by Ndm” value in data set [6] is on record as “did not catalyze O-demethylation”.

Regarding `COc1cc(C=O)ccc1O` [vanillin], in data set [6], the “O-demethylation by Ndm” value was “did not catalyze O-demethylation”.

Take `O=c1[nH]c(=O)c2[nH]cnc2[nH]1` [xanthine]: the “product formed from paraxanthine” value in data set [7] (90 minutes, 7.4 mU (7.4 units) of Ndm) was 193.7 ± 4.0 µM and 193.7 ± 14.0 µM. For the same molecule, the N-demethylation product present in data set [7] (from paraxanthine, after 13 minutes) was ~20.3 µM. For the same molecule, in data set [5], the “activity of Cdh” value is “no activity” and the “activity of Cdh in substrate specificity study” value is given as “none”.

B1: Spinach ferredoxin reductase (protein)
chain: QIASDVEAPPPAPAKVEKHSKKMEEGITVNKFKPKTPYVGRCLLNTKITGDDAPGETWHMVFSHEGEIPYREGQSVGVIPDGEDKNGKPHKLRLYSIASSALGDFGDAKSVSLCVKRLIYTNDAGETIKGVCSNFLCDLKPGAEVKLTGPVGKEMLMPKDPNATIIMLGTGTGIAPFRSFLWKMFFEKHDDYKFNGLAWLFLGVPTSSSLLYKEEFEKMKEKAPDNFRLDFAVSREQTNEKGEKMYIQTRMAQYAVELWEMLKKDNTYFYMCGLKGMEKGIDDIMVSLAAAEGIDWIEYKRQLKKAEQWNVEVY
Turning to B1, in data set [8], the N-demethylase activity entry was “Ndm did not couple with ferredoxin reductase plus ferredoxin from spinach”.

B2: Reductase component of Pseudomonas sp. 9816 naphthalene dioxygenase (protein)
chain: MELLIQPNNRIIPFSAGANLLEVLRENGVAISYSCLSGRCGTCRCRVIDGSVIDSGAENGQSNLTDKQYVLACQSVLTGNCAIEVPEADEIVTHPARIIKGTVVAVESPTHDIRRLRVRLSKPFEFSPGQYATLQFSPEHARPYSMAGLPDDQEMEFHIRKVPGGRVTEYVFEHVREGTSIKLSGPLGTAYLRQKHTGPMLCVGGGTGLAPVLSIVRGALKSGMTNPILLYFGVRSQQDLYDAERLHKLAADHPQLTVHTVIATGPINEGQRAGLITDVIEKDILSLAGWRAYLCGAPAMVEALCTVTKHLGISPEHIYADAFYPGGI
Turning to B2, the N-demethylase activity entry in data set [8] was “Ndm did not function in the presence of the reductase and ferredoxin components of Pseudomonas sp. 9816 naphthalene dioxygenase”.
